Measurements as given in patent US8859463B2, “Method for controlling noxious organisms” (Sumitomo Chemical Company, Limited, priority 2009, dated 2014).

Columns and labels:
Format in all cases: in vivo
Ipomoea lacunosa = assay: Herbicidal activity, corn pot test, Example 59; conditions: pyraclostrobin none, flumioxazin 25 g/ha, twelve days after sowing
Procedure: In a glass container measuring 60 mm in inner diameter and 20 mm in height, 8 mg of a pyraclostrobin emulsifiable concentrate (emulsifiable concentrate containing 23.8% pyraclostrobin, manufactured by BASF under the trade name of Comet) and 25 corn seeds were placed. After capping a glass container, the pyraclostrobin emulsifiable concentrate was adhered to the corn seeds by shaking the glass container by hand. In the same manner, 22 mg of the pyraclostrobin emulsifiable concentrate was adhered to the corn seeds.
A plastic pot measuring 194 mm in inner diameter and 176 mm in height was filled with the soil. In this pot, 2 corn seeds were sown per 1 pot and 10 seeds of Ipomoea lacunosa were sown per 1 pot. On the day of sowing of the corn seeds, after sowing the corn seeds, a water diluted solution (24.5 mg of product/liter) of a flumioxazin granular wettable powder (granular wettable powder containing 51% flumioxazin, manufactured by Valent USA Corporation under the trade name of Valor SX), a water diluted solution (66.7 mg of product/liter) of a sulfentrazone granular wettable powder (granular wettable powder containing 75% sulfentrazone, manufactured by FMC Corporation under the trade name of Cover), a water diluted solution (15 mg/liter) of saflufenacil and a water diluted solution (100 mg/liter) of oxyfluorfen were uniformly sprayed over a surface of the soil in each amount described in Tables 22 to 25, using a sprayer. The water diluted solutions of saflufenacil and oxyfluorfen were prepared by dissolving each predetermined amount of saflufenacil and oxyfluorfen in acetone containing 2% (w/v) Tween 20 and diluting each solution with water so as to adjust the concentration of acetone to 10% by volume.
Twelve days after sowing the seeds of corn and Ipomoea lacunose, herbicidal activity was examined.

Spodoptera litura = assay: Insecticidal effect (protective value), corn pot test, Example 4; conditions: clothianidin none, day 3 after release
Procedure: (§1) The evaluation of the insecticidal effect was performed by determining the life and death of the insects at the time of the investigation and calculating the protective value according to the following equation; Protective Value (%)=100×(1−T/C) wherein the symbols have the following meanings;
(§2) C: The number of insects at the time of observation in an untreated section: and
(§3) T: The number of insects at the time of observation in a treated section.
In addition, the clothianidin suspension was attached to the corn seeds in a similar manner except that it was used in an amount of 217.5 μL.
Thereafter, the test pot was placed in a greenhouse. On day 22 after corn sowing, 10 fourth-instar larvae of Spodoptera litura were released in the pot and the whole pot was then covered with a nylon cloth.
On day 3 after release of Spodoptera litura, the insecticidal effect was examined.

Digitaria ciliaris = assay: Herbicidal activity, soybean pot test, Example 75; conditions: metalaxyl compound none, flumioxazin 50 g/ha, twelve days after sowing
Procedure: (§4) In a glass container measuring 60 mm in inner diameter and 20 mm in height, 12 mg of a metalaxyl emulsifiable concentrate (emulsifiable concentrate containing 25% metalaxyl, manufactured by Syngenta under the trade name of Subdue) and 20 soybean seeds were placed. After capping this glass container, the metalaxyl emulsifiable concentrate was adhered to the soybean seeds by shaking the glass container by hand. In the same manner, 47 mg of the metalaxyl emulsifiable concentrate was adhered to the soybean seeds. In the same manner, 9 mg of a metalaxyl-M emulsifiable concentrate (emulsifiable concentrate containing 33.3% metalaxyl-M manufactured by Syngeta under the trade name of Apron XL) was adhered to the soybean seeds. In the same manner, 40 mg of the metalaxyl-M emulsifiable concentrate was adhered to the soybean seeds.
(§5) A plastic pot measuring 194 mm in inner diameter and 176 mm in height was filled with the soil. In this pot, 2 soybean seeds were sown per 1 pot, 7 seeds of Ipomoea hederacea were sown per 1 pot, and 10 seeds of Digitaria ciliaris were sown per 1 pot. […]

Ipomoea hederacea = assay: Herbicidal activity, soybean pot test, Example 75; conditions: metalaxyl compound none, flumioxazin 50 g/ha, twelve days after sowing
Procedure: as §4, §5

Aulacorthum solani = assay: Insecticidal effect (protective value), soybean pot test, Example 1; conditions: clothianidin none, day 6 after release
Procedure: as §1, §2, §3
Thereafter, the test pot was placed in a greenhouse.

`C#CCN1C(=O)COc2cc(F)c(N3C(=O)C4=C(CCCC4)C3=O)cc21` [Flumioxazin, flumioxazin] was tested, and the Herbicidal activity (Ipomoea lacunosa) was 40, the “Protective Value” (Spodoptera litura; flumioxazin 12.5 g/ha) was 0% and the “Protective Value” (Spodoptera litura; flumioxazin 50 g/ha) was 5%. For the same compound, the “Herbicidal activity Digitaria ciliaris” value (Digitaria ciliaris) was 75, the “Herbicidal activity Ipomoea hederacea” value (Ipomoea hederacea) was 55 and the “Protective Value” (Aulacorthum solani; flumioxazin 12.5 g/ha) was 0%. For the same compound, the “Protective Value” (Aulacorthum solani; flumioxazin 25 g/ha) was 0%.
